{
  "source": "paper PMC5570288",
  "about": "“Hot-spot identification on a broad class of proteins and RNA suggest unifying principles of molecular recognition” (PLoS ONE, 2017)",
  "biological_target": "T1, RecA (Escherichia coli, UniProt P0A7G6)",
  "T1 construct": "assay 'as previously described'; homo-oligomer",
  "T1 sequence (P0A7G6 2-353)": "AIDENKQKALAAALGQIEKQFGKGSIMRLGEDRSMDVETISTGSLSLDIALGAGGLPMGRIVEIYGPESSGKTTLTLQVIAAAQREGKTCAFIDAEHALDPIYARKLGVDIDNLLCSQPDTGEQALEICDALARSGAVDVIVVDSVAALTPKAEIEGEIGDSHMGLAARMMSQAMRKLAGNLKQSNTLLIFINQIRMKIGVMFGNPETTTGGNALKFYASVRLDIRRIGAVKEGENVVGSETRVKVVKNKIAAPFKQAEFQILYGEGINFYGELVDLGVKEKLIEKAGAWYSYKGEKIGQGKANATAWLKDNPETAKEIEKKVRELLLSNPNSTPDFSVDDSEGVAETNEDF",
  "assay": "coupled ATPase assay, ADP to H2O2, amplex red / resorufin fluorescence",
  "assay_type": "biochemical",
  "data": [
    {"smiles": "NCCc1cc(O)c(O)cc1O", "note": "[6-hydroxydopamine]", "values": [
      {"measurement": "IC50", "value": 23, "unit": "µM"}
    ]}
  ]
}
